# What was measured:
# Nav1.5 = target: T1, Nav1.5 (Homo sapiens, UniProt Q14524); experiment: Whole-cell patch-clamp, Nav1.5 currents in stably transfected CHO cells; format: cell-based
# T1 construct: expressed in transfected cells; host or cells: CHO (ATCC CCL-61), stably transfected; selection with Geneticin and Puromycin
# Description: [drawing 92] i.e. 4-[5-[3-Chloro-5-(trifluoromethoxy) phenyl]-1-(pyridin-3-yl)-1H-pyrazol-3-yl]-5,6-dihydro-7H-pyrrolo[3,4-d]pyrimidin-7-one, was tested for its effects on human Nav1.5, Cav1.2, Kv1.5, and HCN4 currents recorded from stably transfected CHO cells. The effect of four concentrations of this compound on these currents was investigated.
# The whole-cell patch-clamp technique was used to investigate the effect of Compound A on the currents of Nav1.5, Kv1.5, Cav1.2 and HCN4 channels, expressed in CHO cells (ATCC, CCL-61). Compound A was tested at concentrations of 200 nM, 600 nM, 2000 nM and 6000 nM. For all ion channels 0.1% DMSO was used as vehicle and ZD7288 as suitable blockers were applied to assure accuracy of the method. The selection antibiotics can be dervied from the Table below:
# Concentrations of 200 nM, 600 nM, 2000 nM and 6000 nM of Compound A were tested. […]
# The 35 mm culture dishes upon which cells were seeded at a density allowing single cells to be recorded were placed on the dish holder of the microscope and continuously perfused (at approximately 1 mL/min) with the bath solution described in section 4.7. […]
# As soon as a stable seal could be established outward tail currents were measured upon pulses described in the Table below: […]
# Values in Ampere (A) of the peak amplitudes of outward tail currents were generated for each voltage step. […] The recorded current amplitudes at the steady state level of current inhibition were compared to those from control conditions measured in the pre-treatment phase of the same cell. The amount of current block was calculated as percentage of control. To determine whether the observed current inhibition was due to Compound A-interaction with the respective ion channel or due to current rundown, these residual currents were compared to those measured in vehicle treated cells. Data from at least two individual experiments were collected and the corresponding mean values and standard deviations were calculated. […]
# [1] = Stability of compound A in solution; format: physicochemical
# Description: The compound stock solutions were stored at 19°C to 30°C (room temperature). Test solutions were prepared freshly every day. Test solutions were prepared shortly before experimentation.
# The Compound A stock solutions were prepared freshly every day of experimentation. Application of Compound A to the CHO cells was completed within one day. During this period, there was no observation indicating any instability of Compound A solved in vehicle. The effects observed on Nav1.5, Kv1.5, Cav1.2 and HCN4 channels of the Compound A dose formulations analyzed remained stable over several hours at room temperature.
# T1 sequence (Q14524 whole entry): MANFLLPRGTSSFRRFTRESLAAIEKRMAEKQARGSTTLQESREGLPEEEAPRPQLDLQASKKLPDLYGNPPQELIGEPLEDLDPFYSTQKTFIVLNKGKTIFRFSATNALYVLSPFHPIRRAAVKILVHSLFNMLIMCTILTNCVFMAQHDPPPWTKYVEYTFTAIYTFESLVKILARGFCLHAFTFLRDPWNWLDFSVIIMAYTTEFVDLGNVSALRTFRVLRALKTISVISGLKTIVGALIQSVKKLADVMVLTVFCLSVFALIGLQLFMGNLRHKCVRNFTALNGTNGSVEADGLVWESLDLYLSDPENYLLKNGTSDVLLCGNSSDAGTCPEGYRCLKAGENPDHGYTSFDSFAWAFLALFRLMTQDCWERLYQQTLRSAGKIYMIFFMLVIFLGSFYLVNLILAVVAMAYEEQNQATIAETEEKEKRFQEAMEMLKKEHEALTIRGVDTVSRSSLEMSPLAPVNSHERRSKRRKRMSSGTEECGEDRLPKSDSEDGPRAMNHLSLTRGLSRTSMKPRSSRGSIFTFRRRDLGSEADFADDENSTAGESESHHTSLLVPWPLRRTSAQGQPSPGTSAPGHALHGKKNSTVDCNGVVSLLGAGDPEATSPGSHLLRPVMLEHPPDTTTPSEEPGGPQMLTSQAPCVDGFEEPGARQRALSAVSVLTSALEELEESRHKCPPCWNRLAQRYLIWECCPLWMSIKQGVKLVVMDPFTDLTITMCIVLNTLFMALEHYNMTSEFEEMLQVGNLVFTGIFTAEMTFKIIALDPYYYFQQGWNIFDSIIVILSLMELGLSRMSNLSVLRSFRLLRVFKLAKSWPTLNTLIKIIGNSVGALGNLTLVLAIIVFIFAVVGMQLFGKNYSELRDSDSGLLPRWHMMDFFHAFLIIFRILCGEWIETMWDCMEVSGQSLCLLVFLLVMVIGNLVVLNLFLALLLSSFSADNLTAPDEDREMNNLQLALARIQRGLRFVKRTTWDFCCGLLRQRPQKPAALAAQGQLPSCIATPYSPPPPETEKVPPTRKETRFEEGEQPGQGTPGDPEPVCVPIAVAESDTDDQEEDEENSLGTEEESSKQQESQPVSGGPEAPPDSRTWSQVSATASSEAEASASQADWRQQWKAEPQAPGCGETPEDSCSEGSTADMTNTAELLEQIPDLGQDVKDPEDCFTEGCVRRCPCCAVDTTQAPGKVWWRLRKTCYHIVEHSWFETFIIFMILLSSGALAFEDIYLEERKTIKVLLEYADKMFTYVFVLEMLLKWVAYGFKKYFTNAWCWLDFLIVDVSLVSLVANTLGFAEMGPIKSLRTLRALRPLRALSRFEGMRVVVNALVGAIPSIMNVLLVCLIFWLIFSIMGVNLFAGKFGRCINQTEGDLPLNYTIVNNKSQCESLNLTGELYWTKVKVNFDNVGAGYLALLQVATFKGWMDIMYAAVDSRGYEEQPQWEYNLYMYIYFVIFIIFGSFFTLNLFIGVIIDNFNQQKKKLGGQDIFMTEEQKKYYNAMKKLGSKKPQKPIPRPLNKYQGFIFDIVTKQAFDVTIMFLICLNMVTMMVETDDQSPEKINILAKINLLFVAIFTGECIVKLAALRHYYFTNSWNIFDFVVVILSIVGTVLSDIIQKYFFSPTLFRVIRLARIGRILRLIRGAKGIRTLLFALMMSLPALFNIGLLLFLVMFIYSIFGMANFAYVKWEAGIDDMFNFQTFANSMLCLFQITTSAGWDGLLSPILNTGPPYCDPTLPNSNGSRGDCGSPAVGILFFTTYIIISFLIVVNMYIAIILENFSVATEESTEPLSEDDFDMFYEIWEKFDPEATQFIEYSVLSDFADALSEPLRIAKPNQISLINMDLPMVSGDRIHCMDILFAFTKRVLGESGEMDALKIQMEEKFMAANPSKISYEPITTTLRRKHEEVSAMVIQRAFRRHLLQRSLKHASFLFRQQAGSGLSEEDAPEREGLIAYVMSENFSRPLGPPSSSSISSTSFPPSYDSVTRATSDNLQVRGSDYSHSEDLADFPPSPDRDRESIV
structure (smiles),measurement,setting,value
"O=C1NCc2c1ncnc2-c1cc(-c2cc(Cl)cc(OC(F)(F)F)c2)n(-c2cccnc2)n1 [Compound A, 4-[5-[3-Chloro-5-(trifluoromethoxy)phenyl]-1-(pyridin-3-yl)-1H-pyrazol-3-yl]-5,6-dihydro-7H-pyrrolo[3,4-d]pyrimidin-7-one]","reduction of the current amplitude (Nav1.5, fast inactivated state)",Nav1.5; at ≤ 6 µM,more than 30%
same,IC50,"Nav1.5; highest concentration tested 6,000 nM, read-out: IC50 (Nav1.5, fast inactivated state)",> 6 µM
same,interaction with ion channels of Nav,Nav1.5; summary statement,"do not interact with other ion channels of Nav, Kav, and Cav substantially"
same,stability in aqueous and physiological fluids and organic solvents,[1],stable
same,stability of dose formulations in bath solution,[1]; several hours at room temperature,no observations indicating any instability

# — patent publication EP3263567A1, “CARBOXAMIDE-SUBSTITUTED PYRAZOLES AND TRI(HETERO)ARYL-PYRAZOLES FOR USE IN METHODS OF TREATING AND / OR PREVENTING CARDIOVASCULAR DISEASES AND / OR COMORBIDITIES THEREOF” (AiCuris Anti-infective Cures GmbH, priority 2016, dated 2018)
